Data reported in ChEMBL document CHEMBL1201862, “PubChem BioAssay data set” (2004).
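How tested: cells in 96-well plates exposed to compound for 48 hours at five concentrations. GI50: concentration for 50% inhibition of growth.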 Activity calls are given as the source filed them. No stated cut-off is given here; in the data, active = GI50 up to about 1.1 µM and inactive = higher.

What was measured:
Assay in all cases: NCI-60 cell line screen, 48 h
TK-10 = test system: TK-10
ACHN = test system: ACHN
A549 = test system: A549
OVCAR-4 = test system: OVCAR-4
U-251 = test system: U-251
SF-539 = test system: SF-539
HOP-92 = test system: HOP-92
COLO 205 = test system: COLO 205
RXF 393 = test system: RXF 393
MDA-MB-231 = test system: MDA-MB-231
HL-60 = test system: HL-60
KM12 = test system: KM12
HCT-15 = test system: HCT-15
BT-549 = test system: BT-549
NCI-H23 = test system: NCI-H23
SK-OV-3 = test system: SK-OV-3
SK-MEL-5 = test system: SK-MEL-5
DU-145 = test system: DU-145
NCI-H522 = test system: NCI-H522
T47D = test system: T47D

SMILES	GI50 (TK-10)	GI50 (ACHN)	GI50 (A549)	GI50 (OVCAR-4)	GI50 (U-251)	GI50 (SF-539)	GI50 (HOP-92)	GI50 (COLO 205)	GI50 (RXF 393)	GI50 (MDA-MB-231)	GI50 (HL-60)	GI50 (KM12)	GI50 (HCT-15) [µM]	GI50 (BT-549)	GI50 (NCI-H23)	GI50 (SK-OV-3)	GI50 (SK-MEL-5)	GI50 (DU-145)	GI50 (NCI-H522)	GI50 (T47D)
O=c1n(-c2ccccc2)c(=O)n2c(-c3ccccc3)c(-c3ccccc3)n12	> 100 µM (inactive)	> 100 µM (inactive)	> 100 µM (inactive)	> 100 µM (inactive)	> 100 µM (inactive)	> 100 µM (inactive)	> 100 µM (inactive)	91.6 µM (inactive)	15.9 µM (inactive)	> 100 µM (inactive)	33.4 µM (inactive)	> 100 µM (inactive)	82.4	> 100 µM (inactive)	> 100 µM (inactive)	> 100 µM (inactive)	> 100 µM (inactive)	–	–	–
Cc1ccc(-n2cnc(C(=N)C#N)c2N)cc1	> 100 µM (inactive)	> 100 µM (inactive)	> 100 µM (inactive)	> 100 µM (inactive)	> 100 µM (inactive)	> 100 µM (inactive)	–	> 100 µM (inactive)	–	> 100 µM (inactive)	> 100 µM (inactive)	> 100 µM (inactive)	> 100	> 100 µM (inactive)	> 100 µM (inactive)	> 100 µM (inactive)	> 100 µM (inactive)	> 100 µM (inactive)	> 100 µM (inactive)	> 100 µM (inactive)
NC1=NN(c2ccccc2)C(=O)C1C(=O)C(=O)Nc1ccc(Cl)c(Cl)c1 (stereo not drawn)	> 100 µM (inactive)	84.5 µM (inactive)	> 100 µM (inactive)	> 100 µM (inactive)	> 100 µM (inactive)	> 100 µM (inactive)	> 100 µM (inactive)	> 100 µM (inactive)	> 100 µM (inactive)	–	86.1 µM (inactive)	> 100 µM (inactive)	68.7	–	> 100 µM (inactive)	> 100 µM (inactive)	> 100 µM (inactive)	–	84.9 µM (inactive)	–
NCCCCNCCCNC(=O)c1csc(-c2nc(CCN)sc2Cl)n1	> 100 µM (inactive)	> 100 µM (inactive)	> 100 µM (inactive)	–	> 100 µM (inactive)	> 100 µM (inactive)	8.85 µM (inactive)	> 100 µM (inactive)	> 100 µM (inactive)	–	> 100 µM (inactive)	> 100 µM (inactive)	> 100	> 100 µM (inactive)	> 100 µM (inactive)	> 100 µM (inactive)	> 100 µM (inactive)	> 100 µM (inactive)	–	> 100 µM (inactive)
CC(=O)c1c2c(cc3c1CC1(Cc4ccccc4C1=O)C3)CCC2 (stereo not drawn)	20.5 µM (inactive)	21.7 µM (inactive)	28.2 µM (inactive)	75.2 µM (inactive)	24.4 µM (inactive)	31.8 µM (inactive)	12.2 µM (inactive)	14.3 µM (inactive)	12 µM (inactive)	22.3 µM (inactive)	5.2 µM (inactive)	16.2 µM (inactive)	32.1	–	16 µM (inactive)	48.9 µM (inactive)	10.3 µM (inactive)	34.7 µM (inactive)	25.5 µM (inactive)	6.87 µM (inactive)
Clc1ccc(OCc2nnc(CCCCCCCCc3nnc(COc4ccc(Cl)cc4)o3)o2)cc1	> 100 µM (inactive)	> 100 µM (inactive)	72.1 µM (inactive)	> 100 µM (inactive)	29.4 µM (inactive)	–	31.7 µM (inactive)	> 100 µM (inactive)	47.3 µM (inactive)	48 µM (inactive)	–	> 100 µM (inactive)	> 100	> 100 µM (inactive)	79.3 µM (inactive)	57.8 µM (inactive)	> 100 µM (inactive)	68.7 µM (inactive)	31.8 µM (inactive)	–
O=C(O)CCC/N=C(\C(=N\CCCC(=O)O)c1ccccc1)c1ccccc1	> 100 µM (inactive)	> 100 µM (inactive)	> 100 µM (inactive)	> 100 µM (inactive)	> 100 µM (inactive)	–	–	> 100 µM (inactive)	> 100 µM (inactive)	> 100 µM (inactive)	–	> 100 µM (inactive)	> 100	> 100 µM (inactive)	> 100 µM (inactive)	> 100 µM (inactive)	–	> 100 µM (inactive)	–	> 100 µM (inactive)
O=Cc1c(O)ccc2ccc(O)c(-c3c(O)ccc4ccc(O)cc34)c12	> 100 µM (inactive)	> 100 µM (inactive)	> 100 µM (inactive)	> 100 µM (inactive)	> 100 µM (inactive)	52.7 µM (inactive)	66.7 µM (inactive)	> 100 µM (inactive)	44.4 µM (inactive)	–	> 100 µM (inactive)	98.4 µM (inactive)	> 100	–	> 100 µM (inactive)	> 100 µM (inactive)	> 100 µM (inactive)	–	80.9 µM (inactive)	–
O=c1[nH]nc(Cc2ccccc2)n1Nc1ccccc1	> 100 µM (inactive)	> 100 µM (inactive)	> 100 µM (inactive)	> 100 µM (inactive)	> 100 µM (inactive)	> 100 µM (inactive)	–	> 100 µM (inactive)	–	> 100 µM (inactive)	> 100 µM (inactive)	> 100 µM (inactive)	> 100	> 100 µM (inactive)	> 100 µM (inactive)	–	> 100 µM (inactive)	> 100 µM (inactive)	> 100 µM (inactive)	> 10 µM (inactive)
COC(=O)/C(=N\O)C(C(=O)C=C(C)C)C(=O)C(=O)Nc1ccccc1C (stereo not drawn)	> 100 µM (inactive)	> 100 µM (inactive)	> 100 µM (inactive)	> 100 µM (inactive)	> 100 µM (inactive)	> 100 µM (inactive)	> 100 µM (inactive)	> 100 µM (inactive)	> 100 µM (inactive)	–	> 100 µM (inactive)	> 100 µM (inactive)	> 100	–	> 100 µM (inactive)	> 100 µM (inactive)	> 100 µM (inactive)	–	> 100 µM (inactive)	–
C[Si](C)(OCCS(=O)(=O)O)OC(=C1S(=O)(=O)OCCOS1(=O)=O)c1cccc2ccccc12	> 100 µM (inactive)	> 100 µM (inactive)	> 100 µM (inactive)	> 100 µM (inactive)	> 100 µM (inactive)	> 100 µM (inactive)	> 100 µM (inactive)	> 100 µM (inactive)	37.2 µM (inactive)	> 100 µM (inactive)	11.6 µM (inactive)	> 100 µM (inactive)	> 100	> 100 µM (inactive)	> 100 µM (inactive)	–	> 100 µM (inactive)	> 100 µM (inactive)	–	–
O=c1[nH]nc(Nc2ccccc2)c2nnn(C3CCCCC3)c12	> 100 µM (inactive)	> 100 µM (inactive)	> 100 µM (inactive)	> 100 µM (inactive)	> 100 µM (inactive)	–	> 100 µM (inactive)	> 100 µM (inactive)	–	> 100 µM (inactive)	> 100 µM (inactive)	> 100 µM (inactive)	> 100	> 100 µM (inactive)	> 100 µM (inactive)	–	> 100 µM (inactive)	> 100 µM (inactive)	–	–
Cc1c2ccccc2c(=O)n2c(-c3ccccn3)cccc12	> 100 µM (inactive)	> 100 µM (inactive)	> 100 µM (inactive)	> 100 µM (inactive)	> 100 µM (inactive)	> 100 µM (inactive)	> 100 µM (inactive)	> 100 µM (inactive)	> 100 µM (inactive)	–	> 100 µM (inactive)	> 100 µM (inactive)	> 100	–	> 100 µM (inactive)	> 100 µM (inactive)	> 100 µM (inactive)	–	> 100 µM (inactive)	–
O=C(OCCN=c1c2ccccc2ccc2ccccc12)c1ccccc1	> 100 µM (inactive)	97.1 µM (inactive)	86.5 µM (inactive)	42.3 µM (inactive)	56.4 µM (inactive)	50.1 µM (inactive)	75 µM (inactive)	92.5 µM (inactive)	> 100 µM (inactive)	91.8 µM (inactive)	27.3 µM (inactive)	86.5 µM (inactive)	63.4	42.2 µM (inactive)	> 100 µM (inactive)	> 100 µM (inactive)	45 µM (inactive)	> 100 µM (inactive)	–	–
CNC(=O)N(C)/N=N/CCCl	> 100 µM (inactive)	> 100 µM (inactive)	> 100 µM (inactive)	> 100 µM (inactive)	> 100 µM (inactive)	> 100 µM (inactive)	> 100 µM (inactive)	> 100 µM (inactive)	> 100 µM (inactive)	> 100 µM (inactive)	> 100 µM (inactive)	> 100 µM (inactive)	> 100	–	> 100 µM (inactive)	> 100 µM (inactive)	> 100 µM (inactive)	> 100 µM (inactive)	> 100 µM (inactive)	> 100 µM (inactive)
COC(=O)C1(Cc2ccc3c(c2)CCC3)Cc2ccccc2C1O (stereo not drawn)	22.1 µM (inactive)	18.3 µM (inactive)	20.5 µM (inactive)	13.9 µM (inactive)	16.8 µM (inactive)	17.5 µM (inactive)	–	17.3 µM (inactive)	–	21.3 µM (inactive)	37.5 µM (inactive)	22.6 µM (inactive)	21.5	18.7 µM (inactive)	19.8 µM (inactive)	19.7 µM (inactive)	16.3 µM (inactive)	39.4 µM (inactive)	15.9 µM (inactive)	22.6 µM (inactive)
O=C1/C(=C/c2ccc(Cl)cc2)N=C(c2ccccc2)N1c1nc2ccccc2s1	56.2 µM (inactive)	62.5 µM (inactive)	–	53.1 µM (inactive)	42.8 µM (inactive)	> 100 µM (inactive)	66.4 µM (inactive)	–	> 100 µM (inactive)	67.8 µM (inactive)	4.03 µM (inactive)	61.9 µM (inactive)	47.8	–	30.4 µM (inactive)	> 100 µM (inactive)	31.6 µM (inactive)	78.2 µM (inactive)	24.4 µM (inactive)	46.8 µM (inactive)
